Source: ChEMBL document CHEMBL3797141, “Design, synthesis and preliminary biological evaluation of 4-aminopyrazole derivatives as novel and potent JAKs inhibitors” (Bioorg Med Chem, 2016)

How the values were obtained:
[1] = molecular target: T1, Tyrosine-protein kinase JAK3 (Homo sapiens, UniProt P52333)
T1 sequence (P52333 whole entry): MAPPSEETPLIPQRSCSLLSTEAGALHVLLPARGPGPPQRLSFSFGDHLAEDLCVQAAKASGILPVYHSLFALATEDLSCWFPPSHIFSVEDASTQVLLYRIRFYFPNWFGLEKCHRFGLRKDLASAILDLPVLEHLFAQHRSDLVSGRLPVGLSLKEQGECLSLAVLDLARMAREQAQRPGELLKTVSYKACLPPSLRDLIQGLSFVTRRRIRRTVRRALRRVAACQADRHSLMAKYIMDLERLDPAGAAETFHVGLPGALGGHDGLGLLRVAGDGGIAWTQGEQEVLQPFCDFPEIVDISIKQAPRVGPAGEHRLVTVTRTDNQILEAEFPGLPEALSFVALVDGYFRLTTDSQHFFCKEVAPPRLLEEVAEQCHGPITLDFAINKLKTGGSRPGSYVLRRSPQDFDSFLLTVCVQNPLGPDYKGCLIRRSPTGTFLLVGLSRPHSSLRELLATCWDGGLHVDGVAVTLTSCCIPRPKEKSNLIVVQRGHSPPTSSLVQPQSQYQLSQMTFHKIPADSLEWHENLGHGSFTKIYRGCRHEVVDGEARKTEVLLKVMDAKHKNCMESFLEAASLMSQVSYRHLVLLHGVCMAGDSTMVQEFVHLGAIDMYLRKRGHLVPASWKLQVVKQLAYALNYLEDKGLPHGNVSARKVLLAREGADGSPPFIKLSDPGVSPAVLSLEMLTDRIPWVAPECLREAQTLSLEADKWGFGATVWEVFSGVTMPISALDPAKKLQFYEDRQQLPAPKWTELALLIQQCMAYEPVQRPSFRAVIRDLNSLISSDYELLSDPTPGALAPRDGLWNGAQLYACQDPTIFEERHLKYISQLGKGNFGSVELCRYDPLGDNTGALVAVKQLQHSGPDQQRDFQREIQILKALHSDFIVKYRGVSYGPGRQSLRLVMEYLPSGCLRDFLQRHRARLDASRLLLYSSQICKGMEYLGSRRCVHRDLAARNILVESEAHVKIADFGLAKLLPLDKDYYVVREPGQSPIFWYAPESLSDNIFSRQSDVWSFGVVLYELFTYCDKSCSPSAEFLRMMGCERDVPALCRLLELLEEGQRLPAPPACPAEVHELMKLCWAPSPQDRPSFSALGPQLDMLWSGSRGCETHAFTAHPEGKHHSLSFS

[2] = molecular target: Tyrosine-protein kinase JAK1 (Homo sapiens, UniProt P23458)
[3] = molecular target: Tyrosine-protein kinase JAK2 (Homo sapiens, UniProt O60674); set-up: species or system Sf21
Tyrosine-protein kinase JAK2, sequence (O60674 whole entry): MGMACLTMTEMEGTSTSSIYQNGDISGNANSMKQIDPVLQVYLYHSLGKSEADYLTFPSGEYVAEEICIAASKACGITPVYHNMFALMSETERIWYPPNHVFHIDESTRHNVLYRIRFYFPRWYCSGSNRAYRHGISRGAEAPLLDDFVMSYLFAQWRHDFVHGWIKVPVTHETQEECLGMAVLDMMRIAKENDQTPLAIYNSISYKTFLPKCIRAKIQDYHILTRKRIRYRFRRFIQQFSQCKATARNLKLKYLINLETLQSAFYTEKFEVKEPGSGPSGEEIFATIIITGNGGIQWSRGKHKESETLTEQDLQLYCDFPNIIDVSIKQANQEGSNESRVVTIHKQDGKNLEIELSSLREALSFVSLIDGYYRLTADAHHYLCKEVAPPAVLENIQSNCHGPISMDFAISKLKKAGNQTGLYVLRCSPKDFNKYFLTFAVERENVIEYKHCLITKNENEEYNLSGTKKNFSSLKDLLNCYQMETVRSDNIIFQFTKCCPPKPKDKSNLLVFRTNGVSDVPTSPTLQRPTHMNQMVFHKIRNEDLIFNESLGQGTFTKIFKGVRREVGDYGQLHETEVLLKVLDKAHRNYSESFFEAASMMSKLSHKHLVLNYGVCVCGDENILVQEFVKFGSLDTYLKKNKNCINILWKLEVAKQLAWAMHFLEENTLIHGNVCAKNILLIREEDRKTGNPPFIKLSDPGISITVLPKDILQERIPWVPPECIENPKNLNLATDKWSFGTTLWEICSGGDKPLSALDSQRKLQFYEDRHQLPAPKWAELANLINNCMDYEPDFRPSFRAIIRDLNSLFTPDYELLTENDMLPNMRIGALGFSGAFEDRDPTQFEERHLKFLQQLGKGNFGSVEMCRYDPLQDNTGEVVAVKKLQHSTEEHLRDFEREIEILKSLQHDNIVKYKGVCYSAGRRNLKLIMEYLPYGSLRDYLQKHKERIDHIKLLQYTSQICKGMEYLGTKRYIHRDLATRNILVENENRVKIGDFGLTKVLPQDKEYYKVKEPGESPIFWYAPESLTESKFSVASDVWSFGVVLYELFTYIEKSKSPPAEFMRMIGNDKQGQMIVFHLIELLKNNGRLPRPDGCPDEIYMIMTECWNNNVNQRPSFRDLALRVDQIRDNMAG

Tyrosine-protein kinase JAK1, sequence (P23458 whole entry): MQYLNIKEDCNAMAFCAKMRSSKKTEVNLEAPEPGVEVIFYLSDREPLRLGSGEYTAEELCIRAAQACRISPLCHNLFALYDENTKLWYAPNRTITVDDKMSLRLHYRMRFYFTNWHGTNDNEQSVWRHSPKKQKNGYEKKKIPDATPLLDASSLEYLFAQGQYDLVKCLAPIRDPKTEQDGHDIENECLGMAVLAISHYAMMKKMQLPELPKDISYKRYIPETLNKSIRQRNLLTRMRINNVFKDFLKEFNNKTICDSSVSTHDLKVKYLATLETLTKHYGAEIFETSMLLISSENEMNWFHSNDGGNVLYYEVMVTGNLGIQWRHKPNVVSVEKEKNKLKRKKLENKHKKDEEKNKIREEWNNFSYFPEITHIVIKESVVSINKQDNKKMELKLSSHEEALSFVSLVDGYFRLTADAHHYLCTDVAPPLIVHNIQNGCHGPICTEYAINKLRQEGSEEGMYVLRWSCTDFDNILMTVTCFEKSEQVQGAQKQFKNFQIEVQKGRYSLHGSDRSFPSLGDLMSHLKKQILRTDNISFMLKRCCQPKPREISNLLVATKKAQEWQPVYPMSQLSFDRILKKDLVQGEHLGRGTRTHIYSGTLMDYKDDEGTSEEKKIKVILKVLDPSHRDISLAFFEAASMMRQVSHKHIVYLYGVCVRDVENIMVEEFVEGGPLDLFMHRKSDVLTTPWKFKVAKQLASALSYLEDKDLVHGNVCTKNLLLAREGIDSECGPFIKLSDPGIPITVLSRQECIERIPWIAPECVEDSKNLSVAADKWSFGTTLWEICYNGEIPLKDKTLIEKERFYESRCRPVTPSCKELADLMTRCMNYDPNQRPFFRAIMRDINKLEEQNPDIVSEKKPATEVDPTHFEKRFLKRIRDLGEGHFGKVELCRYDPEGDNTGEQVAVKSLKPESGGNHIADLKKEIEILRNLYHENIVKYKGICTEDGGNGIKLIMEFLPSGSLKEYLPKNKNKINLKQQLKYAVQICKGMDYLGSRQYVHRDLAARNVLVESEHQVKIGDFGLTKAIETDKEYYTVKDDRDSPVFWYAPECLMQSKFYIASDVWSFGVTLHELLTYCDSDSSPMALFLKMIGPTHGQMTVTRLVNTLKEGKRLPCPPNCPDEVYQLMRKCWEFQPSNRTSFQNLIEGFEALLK

IC50 [1]: 39 nM
IC50 [2]: 670 nM
IC50 [3]: 98 nM
Structure (SMILES): CNc1nc(Nc2cnn(C(CC(N)=O)C3CCCCC3)c2)ncc1C(F)(F)F (stereo not drawn)
